System: imDAPs
Assay: Flow cytometry (FACS) analysis of FOXA2 expression in expanded imDAPs
Format: cell-based, human
Protocol: • 1. Individualize and collect cells by either Accutase or TrypLE treatment. • 2. Wash cells with 1 ml PBS and pellet cells at 250×g for 15 sec. • 3. Remove supernatant, add ˜200 μl of 4% PFA, mix and fix for 10 min at RT. • 4. Pellet cells at 350×g for 5 min. • 5. Wash cells by 1 ml of FACS buffer and pellet cells at 350×g for 5 min. • 6. Remove supernatant, add 200 μl/tube of FACS buffer/0.1% TritonX, mix for 10 min at RT. • 7. Wash cells by 1 ml of FACS buffer and pellet cells at 350×g for 5 min. • 8. Remove supernatant, add 200 μl/tube of primary antibody diluted in FACS buffer, mix gently, and incubate for 30 min at RT. • 9. Wash cells by 1 ml of FACS buffer and pellet cells at 350×g for 5 min. • 10. Remove supernatant, and add 200 μl of secondary antibody diluted in FACS buffer, mix gently, and incubate for 30 min at RT. • 11. Wash cells by 1 ml of FACS buffer and pellet cells at 300×g for 5 min. • 12. Remove supernatant, add 200 μl of FACS buffer, and run samples on the flow cytometry. (2) qRT-PCR • 1. For qRT-PCR analysis of mRNA gene expression, RNA should be harvested from at least 2×10^6 cells. • 2. Harvest cells, add 350 μl of buffer RLT+1% (vol/vol) s-mercaptoethanol to the well, transfer the lysate to a 1.5 ml tube, and put it immediately on ice. • 3. Perform RNA extraction using the Tiangen Kit (DP430), and follow the manufacturer's protocol ‘Purification of total RNA from animal and human cells’. • 4. When the RNA extraction was completed, determine the RNA concentration using a Nanodrop instrument. • 5. Perform the first-strand cDNA synthesis reaction with 1 μg of RNA using the HiScript TM II Q RT SuperMIX for qPCR(+gDNA wiper) Kit (Vazyme, #R223-01) for RT-qPCR. Follow the manufacturer's ‘First-Strand cDNA Synthesis’ protocol. This reaction would yield a 20 μl product. • 6. Dilute the 10 μl cDNA product in 80 μl of nuclease-free water. • 7. Pipette the diluted cDNA product (1 μl), Sybr green master mix (5 μl, Transgen, #AQ131) and 0.95 μM reverse/forward primer mix (4 μl) into a 384-well PCR plate in triplicate, either manually or using an automated pipetting robot. The complete primer panel included the target genes and the housekeeping gene (RPL13A). In the analysis, also included a sample of undifferentiated hPSCs to determine the gene expression levels relative to the expression in hPSCs. • 8. Analyze the samples by running a quantitative PCR on the LightCycler 480 instrument using a 40× cycle two-step protocol with a 60° C., 60 sec annealing/elongation step and a 95° C., 30 sec denaturation step. The average CT values from the three technical replicates were used for calculations of relative gene expression using the ΔΔCT method. For each gene, calculate the FC of the differentiated samples relative to the undifferentiated control sample using the housekeeping gene for normalization. Next, calculate the average of the FC values on the basis of the housekeeping gene. (3) Immunocytochemical Analysis • 1. Cell fixation: Remove the medium from the cells and wash with PBS. Add 4% (wt/vol) PFA (e.g., 200 μl to a well in a 48-well plate) and incubate at room temperature (RT) for 15 min. after incubation, wash the cells three times in PBS. • 2. Blocking: Remove PBS from the wells and add blocking solution to the cells, add enough volume to cover the cells. Leave the cells in blocking solution for 1 h at RT. • 3. Primary antibodies incubation: Remove the blocking solution from the cells and add the primary antibody solutions (˜100 μl/cm^2). […]

c1ccc2c(-c3cnn4cc(-c5ccc(N6CCNCC6)cc5)cnc34)ccnc2c1 [LDN193189]
expression of Foxa2 (percentage of Foxa2+ imDAPs) (Example 9, P1 cells compared with P0 cells, DLL4/VTN-coated, FIG. 5C): slightly decreased the expression of FOXA2 for imDAPs

DLL4: Notch agonist used as second coating matrix
FOXA2 expression (percentage of Foxa2+ imDAPs) (Example 8, VTN or DLL4/VTN coating, with or without SB431542, FIG. 4C): could improve FOXA2 expression

Source: US12391919B2, “Culture medium, coating matrix and method for maturing midbrain dopaminergic progenitor cells” (NUWACELL BIOTECHNOLOGIES CO., LTD., priority 2022, dated 2025)
